According to PubChem BioAssay (NCI):
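The compound was tested at five concentrations on cells cultured in 96-well plates, with a 48-hour exposure period. At the GI50, growth is halved. TGI: total growth inhibition.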

Key:
Test in all cases: growth of human tumour cells (NCI), 48 h
HT29 colon = tested on: HT29 colon
SN12C renal = tested on: SN12C renal
TK-10 renal = tested on: TK-10 renal
RXF 393 renal = tested on: RXF 393 renal
K-562 leukemia = tested on: K-562 leukemia
COLO 205 colon = tested on: COLO 205 colon
CAKI-1 renal = tested on: CAKI-1 renal
SNB-19 CNS = tested on: SNB-19 CNS
HS 578T breast = tested on: HS 578T breast
SR leukemia = tested on: SR leukemia
SF-295 CNS = tested on: SF-295 CNS
SK-MEL-28 melanoma = tested on: SK-MEL-28 melanoma
786-0 renal = tested on: 786-0 renal
IGROV1 ovarian = tested on: IGROV1 ovarian
HCC-2998 colon = tested on: HCC-2998 colon
SF-268 CNS = tested on: SF-268 CNS
HCT-15 colon = tested on: HCT-15 colon
KM12 colon = tested on: KM12 colon
HCT-116 colon = tested on: HCT-116 colon
UACC-62 melanoma = tested on: UACC-62 melanoma
SK-MEL-5 melanoma = tested on: SK-MEL-5 melanoma
SK-OV-3 ovarian = tested on: SK-OV-3 ovarian
M14 melanoma = tested on: M14 melanoma
HOP-92 NSCLC = tested on: HOP-92 NSCLC
MDA-MB-231 breast = tested on: MDA-MB-231 breast
CCRF-CEM leukemia = tested on: CCRF-CEM leukemia
SNB-75 CNS = tested on: SNB-75 CNS
DU-145 prostate = tested on: DU-145 prostate
ACHN renal = tested on: ACHN renal
A498 renal = tested on: A498 renal
OVCAR-4 ovarian = tested on: OVCAR-4 ovarian
RPMI-8226 leukemia = tested on: RPMI-8226 leukemia
PC-3 prostate = tested on: PC-3 prostate
T-47D breast = tested on: T-47D breast
A549 NSCLC = tested on: A549 NSCLC
U251 CNS = tested on: U251 CNS
SW-620 colon = tested on: SW-620 colon
SK-MEL-2 melanoma = tested on: SK-MEL-2 melanoma
HOP-62 NSCLC = tested on: HOP-62 NSCLC
NCI-H226 lung = tested on: NCI-H226 lung
MALME-3M melanoma = tested on: MALME-3M melanoma
SF-539 CNS = tested on: SF-539 CNS
HL-60(TB) leukemia = tested on: HL-60(TB) leukemia
UO-31 renal = tested on: UO-31 renal
OVCAR-5 ovarian = tested on: OVCAR-5 ovarian
BT-549 breast = tested on: BT-549 breast
NCI-H460 lung = tested on: NCI-H460 lung
MCF7 breast = tested on: MCF7 breast
EKVX NSCLC = tested on: EKVX NSCLC
UACC-257 melanoma = tested on: UACC-257 melanoma
NCI-H522 lung = tested on: NCI-H522 lung
LOX IMVI melanoma = tested on: LOX IMVI melanoma
MDA-MB-435 = tested on: MDA-MB-435
OVCAR-8 ovarian = tested on: OVCAR-8 ovarian

Molecule COc1ccc2c(c1)Oc1nc(N)c(C#N)c(N)c1C2Sc1ccc(C)cc1 (stereo not drawn) has a GI50 (HT29 colon) of 1800 nM, a TGI (HT29 colon) of 3300 nM and a GI50 (SN12C renal) of 1590 nM. The TGI (SN12C renal) was 2940 nM, the GI50 (TK-10 renal) was 1830 nM and the TGI (TK-10 renal) was 3220 nM. It also gave a GI50 (RXF 393 renal) of 1480 nM, a TGI (RXF 393 renal) of 2810 nM and a GI50 (K-562 leukemia) of 584 nM. For the same molecule, the TGI (K-562 leukemia) was over 100000 nM, the GI50 (COLO 205 colon) was 1900 nM and the TGI (COLO 205 colon) was 3600 nM. The GI50 (CAKI-1 renal) was 1340 nM, the TGI (CAKI-1 renal) was 2630 nM and the GI50 (SNB-19 CNS) was 1720 nM. The TGI (SNB-19 CNS) was 3120 nM, the GI50 (HS 578T breast) was 2410 nM and the TGI (HS 578T breast) was 5830 nM. For the same molecule, the GI50 (SR leukemia) was 313 nM, the TGI (SR leukemia) was over 100000 nM and the GI50 (SF-295 CNS) was 1690 nM. For the same molecule, the TGI (SF-295 CNS) was 3080 nM, the GI50 (SK-MEL-28 melanoma) was 1730 nM and the TGI (SK-MEL-28 melanoma) was 3120 nM. It also gave a GI50 (786-0 renal) of 1700 nM, a TGI (786-0 renal) of 3130 nM and a GI50 (IGROV1 ovarian) of 1200 nM. It also gave a TGI (IGROV1 ovarian) of 2490 nM, a GI50 (HCC-2998 colon) of 1750 nM and a TGI (HCC-2998 colon) of 3260 nM. The GI50 (SF-268 CNS) was 1590 nM, the TGI (SF-268 CNS) was 3040 nM and the GI50 (HCT-15 colon) was 1330 nM. The TGI (HCT-15 colon) was 2830 nM, the GI50 (KM12 colon) was 1740 nM and the TGI (KM12 colon) was 3150 nM. It also gave a GI50 (HCT-116 colon) of 1750 nM, a TGI (HCT-116 colon) of 3310 nM and a GI50 (UACC-62 melanoma) of 1660 nM. The TGI (UACC-62 melanoma) was 3080 nM, the GI50 (SK-MEL-5 melanoma) was 1790 nM and the TGI (SK-MEL-5 melanoma) was 3190 nM. The GI50 (SK-OV-3 ovarian) was 1900 nM, the TGI (SK-OV-3 ovarian) was 3390 nM and the GI50 (M14 melanoma) was 1850 nM. It also gave a TGI (M14 melanoma) of 3360 nM, a GI50 (HOP-92 NSCLC) of 1640 nM and a TGI (HOP-92 NSCLC) of 3010 nM. The GI50 (MDA-MB-231 breast) was 1710 nM, the TGI (MDA-MB-231 breast) was 3130 nM and the GI50 (CCRF-CEM leukemia) was 421 nM. For the same molecule, the TGI (CCRF-CEM leukemia) was over 100000 nM, the GI50 (SNB-75 CNS) was 1400 nM and the TGI (SNB-75 CNS) was 2700 nM. The GI50 (DU-145 prostate) was 1870 nM, the TGI (DU-145 prostate) was 3340 nM and the GI50 (ACHN renal) was 1660 nM. The TGI (ACHN renal) was 3020 nM, the GI50 (A498 renal) was 1480 nM and the TGI (A498 renal) was 2800 nM. It also gave a GI50 (OVCAR-4 ovarian) of 1730 nM, a TGI (OVCAR-4 ovarian) of 3130 nM and a GI50 (RPMI-8226 leukemia) of 2610 nM. It also gave a TGI (RPMI-8226 leukemia) of 7270 nM, a GI50 (PC-3 prostate) of 1620 nM and a TGI (PC-3 prostate) of 3040 nM. For the same molecule, the GI50 (T-47D breast) was 1220 nM, the TGI (T-47D breast) was 3910 nM and the GI50 (A549 NSCLC) was 1770 nM. The TGI (A549 NSCLC) was 3330 nM, the GI50 (U251 CNS) was 1550 nM and the TGI (U251 CNS) was 2960 nM. The GI50 (SW-620 colon) was 1770 nM, the TGI (SW-620 colon) was 3380 nM and the GI50 (SK-MEL-2 melanoma) was 1590 nM. The TGI (SK-MEL-2 melanoma) was 2940 nM, the GI50 (HOP-62 NSCLC) was 1820 nM and the TGI (HOP-62 NSCLC) was 3310 nM. The GI50 (NCI-H226 lung) was 1970 nM, the TGI (NCI-H226 lung) was 4590 nM and the GI50 (MALME-3M melanoma) was 1670 nM. It also gave a TGI (MALME-3M melanoma) of 3120 nM, a GI50 (SF-539 CNS) of 1610 nM and a TGI (SF-539 CNS) of 2980 nM. The GI50 (HL-60(TB) leukemia) was 1720 nM, the TGI (HL-60(TB) leukemia) was 5260 nM and the GI50 (UO-31 renal) was 1180 nM. It also gave a TGI (UO-31 renal) of 2420 nM, a GI50 (OVCAR-5 ovarian) of 1780 nM and a TGI (OVCAR-5 ovarian) of 3240 nM. It also gave a GI50 (BT-549 breast) of 1290 nM, a TGI (BT-549 breast) of 2580 nM and a GI50 (NCI-H460 lung) of 1980 nM. For the same molecule, the TGI (NCI-H460 lung) was 3900 nM, the GI50 (MCF7 breast) was 1260 nM and the TGI (MCF7 breast) was 2900 nM. For the same molecule, the GI50 (EKVX NSCLC) was 1720 nM, the TGI (EKVX NSCLC) was 3280 nM and the GI50 (UACC-257 melanoma) was 1710 nM. For the same molecule, the TGI (UACC-257 melanoma) was 3110 nM, the GI50 (NCI-H522 lung) was 1530 nM and the TGI (NCI-H522 lung) was 2870 nM. For the same molecule, the GI50 (LOX IMVI melanoma) was 1410 nM, the TGI (LOX IMVI melanoma) was 2840 nM and the GI50 (MDA-MB-435) was 1670 nM. The TGI (MDA-MB-435) was 3090 nM, the GI50 (OVCAR-8 ovarian) was 1730 nM and the TGI (OVCAR-8 ovarian) was 3140 nM.
